Assay results reported in patent US11608341B2, “Substituted tetrahydropyrazolo[3,4-d]pyrimidines and tetrahydropyrazolo[4,3-d]pyrimidines as C5A receptor modulators” (Idorsia Pharmaceuticals Ltd., priority 2018, dated 2023).

target: T1, C5AR1 (Homo sapiens, UniProt P21730); assay: In vitro assay: antagonism of C5a-induced beta-arrestin recruitment (PathHunter) in CHO-K1 C5AR1 beta-arrestin cell line; format: cell-based; conditions: antagonistic activity, 1-10 nM C5a agonist, geometric mean where several measurements, read-out: C5aR IC50
T1 construct: host or cells: CHO-K1
T1 sequence (P21730 1-350): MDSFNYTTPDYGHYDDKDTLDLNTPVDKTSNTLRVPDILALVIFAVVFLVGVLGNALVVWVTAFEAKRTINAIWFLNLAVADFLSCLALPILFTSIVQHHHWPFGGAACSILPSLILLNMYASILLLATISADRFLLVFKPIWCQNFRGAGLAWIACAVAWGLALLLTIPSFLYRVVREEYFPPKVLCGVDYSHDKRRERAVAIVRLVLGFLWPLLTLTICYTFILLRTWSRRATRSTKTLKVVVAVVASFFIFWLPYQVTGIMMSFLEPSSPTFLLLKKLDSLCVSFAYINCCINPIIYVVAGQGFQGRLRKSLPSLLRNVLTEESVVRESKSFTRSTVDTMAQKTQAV
Outline: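 Antagonist or DMSO added first, then C5a (1-10 nM, added at 6-fold end concentration), 1.5 h at 37 °C. PathHunter detection reagent was added for 45 min at RT before plate reading. IC50s come from antagonist serial dilutions in nmol/l and are geometric means of several measurements.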

Compound | IC50
COc1nccc(C(F)F)c1N1CCC(N2C(=O)N(Cc3ccccc3C(F)(F)F)c3nn(C4CCCCO4)cc3C2C)CC1 (centres unmarked) [Example 343] | 57 nM
CC1c2cn(C3CCCCO3)nc2N(Cc2ccccc2C2CC2)C(=O)N1C1CCN(c2c(F)cccc2Cl)CC1 (centres unmarked) [Example 365] | 45 nM

The next compounds have a lower IC50 than those just listed; values first:

IC50 | Compound
13 nM | Cc1cccc(F)c1N1CCC(N2C(=O)N(Cc3ccccc3C(F)(F)F)c3nn(C4CCCCO4)cc3C2C)CC1 (centres unmarked) [Example 313]
31 nM | CC1c2cn(C3CCCCO3)nc2N(Cc2ccccc2C(F)(F)F)C(=O)N1C1CCN(c2c(F)cccc2C(F)F)CC1 (centres unmarked) [Example 341]
24 nM | CC1c2cn(C3CCCCO3)nc2N(Cc2ccccc2C(F)(F)F)C(=O)N1C1CCN(c2c(F)cccc2Cl)CC1 (centres unmarked) [Example 342]
